Source: the NIST ThermoML archive (doi:10.1021/acs.jced.7b00604)
Numbers after ± are expanded uncertainties.

Assays:
[1] = molar heat capacity at constant pressure; settings: 100 kPa, Liquid, Extra sensitive DSC
[2] = 100 kPa, Liquid; for speed of sound: Frequency=3 MHz, Sing-around technique in a fixed-path interferometer; for mass density: Vibrating tube method
[3] = xn = mol fraction of the nth substance listed; settings: 100 kPa, Liquid, x1 = 1; for speed of sound: Frequency=3 MHz, Sing-around technique in a fixed-path interferometer; for mass density: Vibrating tube method

COCCO [2-methoxyethan-1-ol]
Settings	mass density, [2] [kg/m3]	molar heat capacity at constant pressure, [1] [J/K/mol]	speed of sound, [2] [m/s]
298.15 K	960.31 ± 1	175.32 ± 6.8	1341.8 ± 1.5
303.15 K	955.71 ± 1	176.9 ± 6.8	1324.1 ± 1.5
308.15 K	951.08 ± 1	178.41 ± 6.9	1307.3 ± 1.5
313.15 K	946.41 ± 1	179.96 ± 7	1292 ± 1.5
318.15 K	941.72 ± 1	181.45 ± 7	1274.2 ± 1.5
323.15 K	936.99 ± 1	183.02 ± 7.1	1259.4 ± 1.5

CCCC[n+]1ccn(C)c1.O=S(=O)([N-]S(=O)(=O)C(F)(F)F)C(F)(F)F
Settings	mass density, [2] [kg/m3]	molar heat capacity at constant pressure, [1] [J/K/mol]	speed of sound, [2] [m/s]
298.15 K	1437.12 ± 1.1	567.22 ± 22	1227.8 ± 1.5
303.15 K	1432.51 ± 1.1	569.85 ± 22	1216.7 ± 1.5
308.15 K	1427.43 ± 1.1	572.64 ± 22	1205.8 ± 1.5
313.15 K	1422.86 ± 1.1	575.47 ± 22	1194.9 ± 1.5
318.15 K	1417.91 ± 1.1	578.38 ± 22	1184.2 ± 1.5
323.15 K	1413.58 ± 1.1	581.52 ± 23	1173.6 ± 1.5

CCCC[n+]1ccn(C)c1.O=S(=O)([N-]S(=O)(=O)C(F)(F)F)C(F)(F)F + COCCO
[3]
Settings	mass density [kg/m3]	speed of sound [m/s]
298.15 K	1437.12 ± 1.1	1227.8 ± 1.5
303.15 K	1432.51 ± 1.1	1216.7 ± 1.5
308.15 K	1427.43 ± 1.1	1205.8 ± 1.5
313.15 K	1422.86 ± 1.1	1194.9 ± 1.5
318.15 K	1417.91 ± 1.1	1184.2 ± 1.5
323.15 K	1413.58 ± 1.1	1173.6 ± 1.5
